# In patent publication US9295673B2, “Combination of mTOR inhibitors and P13-kinase inhibitors, and uses thereof” (Intellikine LLC, priority 2011, dated 2016):
# Target: PI3K γ (Homo sapiens, UniProt P48736)
# Assay: PI 3-Kinase (human) HTRF assay, PI3K γ
# Conditions: read-out: PI3K γ IC50; Table 2
# Chain of PI3K γ (P48736 whole entry): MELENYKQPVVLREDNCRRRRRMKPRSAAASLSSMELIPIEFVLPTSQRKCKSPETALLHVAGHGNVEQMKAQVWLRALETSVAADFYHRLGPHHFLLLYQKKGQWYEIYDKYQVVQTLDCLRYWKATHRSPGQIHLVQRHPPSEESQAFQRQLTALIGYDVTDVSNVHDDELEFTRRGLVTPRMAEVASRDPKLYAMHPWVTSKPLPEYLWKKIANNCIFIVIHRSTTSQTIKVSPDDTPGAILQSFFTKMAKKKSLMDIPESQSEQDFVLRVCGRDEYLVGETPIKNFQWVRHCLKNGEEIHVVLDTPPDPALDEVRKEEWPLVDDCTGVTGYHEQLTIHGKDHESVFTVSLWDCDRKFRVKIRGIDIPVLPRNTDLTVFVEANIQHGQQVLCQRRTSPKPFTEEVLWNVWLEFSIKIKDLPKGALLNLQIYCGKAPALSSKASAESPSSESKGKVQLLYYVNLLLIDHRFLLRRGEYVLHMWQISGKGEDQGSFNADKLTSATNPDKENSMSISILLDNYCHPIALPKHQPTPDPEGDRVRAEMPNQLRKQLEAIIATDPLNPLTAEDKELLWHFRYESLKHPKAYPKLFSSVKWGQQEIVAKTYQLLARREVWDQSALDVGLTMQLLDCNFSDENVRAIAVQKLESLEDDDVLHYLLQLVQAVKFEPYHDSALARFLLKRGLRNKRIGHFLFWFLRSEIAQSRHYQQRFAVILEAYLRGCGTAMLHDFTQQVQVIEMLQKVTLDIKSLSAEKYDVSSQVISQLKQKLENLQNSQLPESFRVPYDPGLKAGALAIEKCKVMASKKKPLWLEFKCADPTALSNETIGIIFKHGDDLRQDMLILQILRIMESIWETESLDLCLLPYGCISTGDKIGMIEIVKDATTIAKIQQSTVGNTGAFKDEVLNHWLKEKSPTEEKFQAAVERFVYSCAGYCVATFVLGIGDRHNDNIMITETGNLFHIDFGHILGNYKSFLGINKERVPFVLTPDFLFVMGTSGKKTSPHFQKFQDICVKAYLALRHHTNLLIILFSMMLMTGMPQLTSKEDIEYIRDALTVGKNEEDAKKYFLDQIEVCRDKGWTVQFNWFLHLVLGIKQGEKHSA
row,SMILES,IC50
1,Nc1ncnc2c1c(-c1cc3cc(O)ccc3[nH]1)nn2CCN1CCOCC1 [Compound 33],> 500 nM
2,CC(C)N1CCC(n2nc(-c3cc4cc(O)ccc4[nH]3)c3c(N)ncnc32)CC1 [Compound 55],> 500 nM

# Same assay, conditions: read-out: PI3K γ IC50; Table 4
row,SMILES,IC50
1,C[C@@H]1CN(c2cnc3ccc(-c4ccc5oc(N)nc5c4)nc3c2)CCN1 [Compound 599],< 10000 nM
2,Nc1nc2cc(-c3ccc4ncc(N5C6CCC5COC6)cc4n3)ccc2o1 [Compound 574],< 100 nM
3,Nc1nc2cc(-c3ccc4ncc(N5CC(N6CC7CCC(C6)O7)C5)nc4n3)ccc2o1 [Compound 571],< 10000 nM
4,C[C@@H]1CN(C2CN(c3cnc4ccc(-c5ccc6oc(N)nc6c5)nc4c3)C2)CCN1C [Compound 608],< 10000 nM
5,CC1CN(C2CN(c3cnc4ccc(-c5ccc6oc(N)nc6c5)nc4n3)C2)CCO1 (stereo not shown) [Compound 569],< 10000 nM
6,Nc1nc2cc(-c3ccc4ncc(N5CC(N6C7CCC6COC7)C5)cc4n3)ccc2o1 [Compound 618],< 1000 nM

# Same assay, conditions: read-out: PI3K γ IC50; in vitro
row,IC50,SMILES
1,> 10000 nM,O=C(c1cnc2ccc(-c3cncc4c3cnn4CCO)cn12)N1CCOCC1 [Compound 539]
2,> 10000 nM,Nc1cc(-c2ccc3ncc(C(=O)N4CCOCC4)n3c2)cnc1Cl [Compound 415]
3,> 10000 nM,COc1ccc(CNc2n[nH]c3cc(-c4ccc5oc(N)nc5c4)ccc23)cc1 [Compound 429]

# Target: PI3K δ (Homo sapiens, UniProt O00329)
# Assay: PI 3-Kinase (human) HTRF assay, PI3K δ
# Conditions: not given
row,SMILES,IC50
1,C[C@H]1CN(C2CN(c3cnc4ccc(-c5ccc6oc(N)nc6c5)nc4c3)C2)CCN1C [Compound 606],< 1000 nM

# Same assay, conditions: read-out: PI3K δ IC50
row,SMILES,IC50
1,Cc1nccn1CCn1nc(-c2cc3cc(O)ccc3[nH]2)c2c(N)ncnc21 [Compound 44],> 500 nM
2,CCOC(=O)Cn1nc(-c2cc3cc(O)ccc3[nH]2)c2c(N)ncnc21 [Compound 28],> 500 nM
3,CC(C)[C@@H](N)C(=O)N1CCN(c2cnc3ccc(-c4ccc5oc(N)nc5c4)cc3n2)CC1 [Compound 270],< 1000 nM
4,C[C@@H]1CN(c2cnc3ccc(-c4ccc5oc(N)nc5c4)nc3c2)CCN1 [Compound 599],< 10000 nM
5,Nc1ncnc2c1c(-c1cc3cc(O)ccc3[nH]1)nn2C1CCOCC1 [Compound 42],50 to 100 nM
6,Nc1nc2cc(-c3ccc4ncc(N5C6CCC5COC6)cc4n3)ccc2o1 [Compound 574],> 10000 nM
7,Cc1ncc(-c2ccc3ncc(C(=O)N4C5CCC4COC5)n3c2)c2cn[nH]c12 [Compound 538],< 10000 nM
8,Nc1nc2cc(-c3ccc4ncc(N5CC(N6C7CCC6COC7)C5)cc4n3)ccc2o1 [Compound 618],< 10000 nM

# Same assay, conditions: read-out: PI3K δ IC50; Table 2
row,SMILES,IC50
1,Nc1ncnc2c1c(-c1cc3cc(O)ccc3[nH]1)nn2C1CCN(C(=O)C2CC2)CC1 [Compound 31],100 to 500 nM
2,CNC(=O)CCn1nc(-c2cc3cc(O)ccc3[nH]2)c2c(N)ncnc21 [Compound 43],> 500 nM
3,CC(=O)N1CCC(n2nc(-c3cc4cc(O)ccc4[nH]3)c3c(N)ncnc32)CC1 [Compound 30],> 500 nM
4,Nc1ncnc2c1c(-c1cc3cc(O)ccc3[nH]1)nn2CCN1CCOCC1 [Compound 33],> 500 nM

# Same assay, conditions: read-out: PI3K δ IC50; Table 4
row,IC50,SMILES
1,> 10000 nM,Nc1nc2cc(-c3ccc4ncc(N5CC(N6CC7CCC(C6)O7)C5)nc4n3)ccc2o1 [Compound 571]
2,> 10000 nM,CC1CN(C2CN(c3cnc4ccc(-c5ccc6oc(N)nc6c5)nc4n3)C2)CCO1 (stereo not shown) [Compound 569]

# Same assay, conditions: read-out: PI3K δ IC50; in vitro
row,IC50,SMILES
1,> 10000 nM,O=C(c1cnc2ccc(-c3cncc4c3cnn4CCO)cn12)N1CCOCC1 [Compound 539]
2,> 10000 nM,Nc1cc(-c2ccc3ncc(C(=O)N4CCOCC4)n3c2)cnc1Cl [Compound 415]
3,> 10000 nM,COc1ccc(CNc2n[nH]c3cc(-c4ccc5oc(N)nc5c4)ccc23)cc1 [Compound 429]

# Target: PI3K β (Homo sapiens, UniProt P42338)
# Sequence (P42338 whole entry): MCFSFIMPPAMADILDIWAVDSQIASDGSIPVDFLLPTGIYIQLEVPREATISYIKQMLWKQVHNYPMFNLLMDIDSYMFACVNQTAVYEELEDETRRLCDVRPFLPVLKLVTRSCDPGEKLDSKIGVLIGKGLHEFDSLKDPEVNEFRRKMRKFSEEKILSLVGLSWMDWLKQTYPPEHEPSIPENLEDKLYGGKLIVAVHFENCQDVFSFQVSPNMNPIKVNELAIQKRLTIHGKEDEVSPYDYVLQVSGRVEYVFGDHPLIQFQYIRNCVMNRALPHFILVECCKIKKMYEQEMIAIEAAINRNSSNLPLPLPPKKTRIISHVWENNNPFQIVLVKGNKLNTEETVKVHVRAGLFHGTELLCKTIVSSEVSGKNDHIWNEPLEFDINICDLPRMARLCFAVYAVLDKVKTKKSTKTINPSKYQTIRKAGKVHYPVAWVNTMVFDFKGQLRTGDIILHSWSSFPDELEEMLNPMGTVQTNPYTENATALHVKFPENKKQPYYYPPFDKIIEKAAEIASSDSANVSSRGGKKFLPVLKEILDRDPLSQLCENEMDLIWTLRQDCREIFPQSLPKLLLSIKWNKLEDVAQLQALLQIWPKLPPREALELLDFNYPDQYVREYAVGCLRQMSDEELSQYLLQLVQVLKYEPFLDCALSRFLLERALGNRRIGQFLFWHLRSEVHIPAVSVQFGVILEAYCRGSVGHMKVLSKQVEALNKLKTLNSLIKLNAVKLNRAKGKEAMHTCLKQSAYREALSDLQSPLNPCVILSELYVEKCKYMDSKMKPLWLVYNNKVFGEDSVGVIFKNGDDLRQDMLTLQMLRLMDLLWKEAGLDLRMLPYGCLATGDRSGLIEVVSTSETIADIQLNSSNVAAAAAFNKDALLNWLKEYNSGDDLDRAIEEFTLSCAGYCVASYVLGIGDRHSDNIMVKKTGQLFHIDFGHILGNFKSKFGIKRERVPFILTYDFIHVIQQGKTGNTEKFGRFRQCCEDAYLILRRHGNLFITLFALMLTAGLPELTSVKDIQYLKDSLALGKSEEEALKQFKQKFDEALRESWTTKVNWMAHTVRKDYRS
# Sequence (P27986 whole entry partner): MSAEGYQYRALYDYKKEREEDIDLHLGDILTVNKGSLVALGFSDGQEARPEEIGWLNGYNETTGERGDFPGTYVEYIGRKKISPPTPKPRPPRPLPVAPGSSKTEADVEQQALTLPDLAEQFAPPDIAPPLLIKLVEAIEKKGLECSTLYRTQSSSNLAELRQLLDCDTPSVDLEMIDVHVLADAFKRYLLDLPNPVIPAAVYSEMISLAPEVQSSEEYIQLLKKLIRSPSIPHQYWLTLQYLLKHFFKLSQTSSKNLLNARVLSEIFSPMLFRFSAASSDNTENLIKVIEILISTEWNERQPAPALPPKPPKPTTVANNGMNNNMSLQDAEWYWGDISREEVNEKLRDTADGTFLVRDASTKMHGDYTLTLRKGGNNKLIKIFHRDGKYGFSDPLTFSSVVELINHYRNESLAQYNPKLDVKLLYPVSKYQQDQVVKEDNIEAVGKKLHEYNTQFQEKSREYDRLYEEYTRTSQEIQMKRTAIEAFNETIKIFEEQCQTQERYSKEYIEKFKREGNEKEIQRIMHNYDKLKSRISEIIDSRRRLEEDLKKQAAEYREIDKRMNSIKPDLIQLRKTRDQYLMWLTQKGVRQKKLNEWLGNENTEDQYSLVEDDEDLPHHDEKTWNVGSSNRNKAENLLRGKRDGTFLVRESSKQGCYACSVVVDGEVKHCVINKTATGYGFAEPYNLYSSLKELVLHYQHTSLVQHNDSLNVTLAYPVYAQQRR
# Assay: PI 3-Kinase (human) HTRF assay, PI3K β
# Conditions: read-out: PI3K β IC50
row,SMILES,IC50
1,CC(C)[C@@H](N)C(=O)N1CCN(c2cnc3ccc(-c4ccc5oc(N)nc5c4)cc3n2)CC1 [Compound 270],< 1000 nM

# Same assay, conditions: read-out: PI3K β IC50; Table 2
row,SMILES,IC50
1,Cc1nccn1CCn1nc(-c2cc3cc(O)ccc3[nH]2)c2c(N)ncnc21 [Compound 44],> 500 nM
2,CCOC(=O)Cn1nc(-c2cc3cc(O)ccc3[nH]2)c2c(N)ncnc21 [Compound 28],> 500 nM
3,Nc1ncnc2c1c(-c1cc3cc(O)ccc3[nH]1)nn2C1CCOCC1 [Compound 42],> 500 nM
4,Nc1ncnc2c1c(-c1cc3cc(O)ccc3[nH]1)nn2C1CCN(C(=O)C2CC2)CC1 [Compound 31],> 500 nM
5,CNC(=O)CCn1nc(-c2cc3cc(O)ccc3[nH]2)c2c(N)ncnc21 [Compound 43],> 500 nM
6,CC(=O)N1CCC(n2nc(-c3cc4cc(O)ccc4[nH]3)c3c(N)ncnc32)CC1 [Compound 30],> 500 nM
7,CC(C)N1CCC(n2nc(-c3cc4cc(O)ccc4[nH]3)c3c(N)ncnc32)CC1 [Compound 55],> 500 nM

# Same assay, conditions: read-out: PI3K β IC50; Table 4
row,SMILES,IC50
1,Nc1nc2cc(-c3ccc4ncc(N5C6CCC5COC6)cc4n3)ccc2o1 [Compound 574],< 10000 nM
2,Nc1nc2cc(-c3ccc4ncc(N5CC(N6CC7CCC(C6)O7)C5)nc4n3)ccc2o1 [Compound 571],> 10000 nM
3,C[C@@H]1CN(C2CN(c3cnc4ccc(-c5ccc6oc(N)nc6c5)nc4c3)C2)CCN1C [Compound 608],< 10000 nM
4,CC1CN(C2CN(c3cnc4ccc(-c5ccc6oc(N)nc6c5)nc4n3)C2)CCO1 (stereo not shown) [Compound 569],> 10000 nM
5,C[C@@H]1CN(C2CN(c3cnc4ccc(-c5ccc6oc(N)nc6c5)nc4c3)C2)CCN1 [Compound 607],< 10000 nM
6,Nc1nc2cc(-c3ccc4ncc(N5CC(N6C7CCC6COC7)C5)cc4n3)ccc2o1 [Compound 618],> 10000 nM

# Same assay, conditions: read-out: PI3K β IC50; in vitro
row,IC50,SMILES
1,> 10000 nM,O=C(c1cnc2ccc(-c3cncc4c3cnn4CCO)cn12)N1CCOCC1 [Compound 539]
2,> 10000 nM,Nc1cc(-c2ccc3ncc(C(=O)N4CCOCC4)n3c2)cnc1Cl [Compound 415]
3,> 10000 nM,COc1ccc(CNc2n[nH]c3cc(-c4ccc5oc(N)nc5c4)ccc23)cc1 [Compound 429]

# Target: PI3K α (Homo sapiens, UniProt P42336)
# Assay: PI 3-Kinase (human) HTRF assay, PI3K α
# Conditions: not given
row,SMILES,IC50
1,C[C@H]1CN(C2CN(c3cnc4ccc(-c5ccc6oc(N)nc6c5)nc4c3)C2)CCN1C [Compound 606],< 100 nM

# Same assay, conditions: read-out: PI3K α IC50
row,SMILES,IC50
1,CCOC(=O)Cn1nc(-c2cc3cc(O)ccc3[nH]2)c2c(N)ncnc21 [Compound 28],> 500 nM
2,CC(C)[C@@H](N)C(=O)N1CCN(c2cnc3ccc(-c4ccc5oc(N)nc5c4)cc3n2)CC1 [Compound 270],< 100 nM
3,Nc1ncnc2c1c(-c1cc3cc(O)ccc3[nH]1)nn2C1CCOCC1 [Compound 42],> 500 nM
4,Nc1ncnc2c1c(-c1cc3cc(O)ccc3[nH]1)nn2C1CCN(C(=O)C2CC2)CC1 [Compound 31],> 500 nM
5,CNC(=O)CCn1nc(-c2cc3cc(O)ccc3[nH]2)c2c(N)ncnc21 [Compound 43],> 500 nM
6,CC(=O)N1CCC(n2nc(-c3cc4cc(O)ccc4[nH]3)c3c(N)ncnc32)CC1 [Compound 30],> 500 nM

# Same assay, conditions: read-out: PI3K α IC50; Table 2
row,SMILES,IC50
1,Cc1nccn1CCn1nc(-c2cc3cc(O)ccc3[nH]2)c2c(N)ncnc21 [Compound 44],> 500 nM
2,Nc1ncnc2c1c(-c1cc3cc(O)ccc3[nH]1)nn2CCN1CCOCC1 [Compound 33],> 500 nM
3,CC(C)N1CCC(n2nc(-c3cc4cc(O)ccc4[nH]3)c3c(N)ncnc32)CC1 [Compound 55],> 500 nM

# Same assay, conditions: read-out: PI3K α IC50; Table 4
row,SMILES,IC50
1,Nc1nc2cc(-c3ccc4ncc(N5C6CCC5COC6)cc4n3)ccc2o1 [Compound 574],< 100 nM
2,Nc1nc2cc(-c3ccc4ncc(N5CC(N6CC7CCC(C6)O7)C5)nc4n3)ccc2o1 [Compound 571],< 1000 nM
3,CC1CN(C2CN(c3cnc4ccc(-c5ccc6oc(N)nc6c5)nc4n3)C2)CCO1 (stereo not shown) [Compound 569],< 1000 nM
4,Nc1nc2cc(-c3ccc4ncc(N5CC(N6C7CCC6COC7)C5)cc4n3)ccc2o1 [Compound 618],< 100 nM

# Same assay, conditions: read-out: PI3K α IC50; in vitro
row,IC50,SMILES
1,> 10000 nM,O=C(c1cnc2ccc(-c3cncc4c3cnn4CCO)cn12)N1CCOCC1 [Compound 539]
2,< 10000 nM,Nc1cc(-c2ccc3ncc(C(=O)N4CCOCC4)n3c2)cnc1Cl [Compound 415]
3,> 10000 nM,COc1ccc(CNc2n[nH]c3cc(-c4ccc5oc(N)nc5c4)ccc23)cc1 [Compound 429]

row,SMILES,IC50
1,O=C(c1cnc2ccc(-c3ccnc4[nH]ncc34)cn12)N1CCOCC1 [Compound 532],< 10000 nM

# Target: T1, mTOR (Homo sapiens, UniProt P42345)
# T1 construct: purchased Invitrogen
# T1 sequence (P42345 1360-2549 limits assumed): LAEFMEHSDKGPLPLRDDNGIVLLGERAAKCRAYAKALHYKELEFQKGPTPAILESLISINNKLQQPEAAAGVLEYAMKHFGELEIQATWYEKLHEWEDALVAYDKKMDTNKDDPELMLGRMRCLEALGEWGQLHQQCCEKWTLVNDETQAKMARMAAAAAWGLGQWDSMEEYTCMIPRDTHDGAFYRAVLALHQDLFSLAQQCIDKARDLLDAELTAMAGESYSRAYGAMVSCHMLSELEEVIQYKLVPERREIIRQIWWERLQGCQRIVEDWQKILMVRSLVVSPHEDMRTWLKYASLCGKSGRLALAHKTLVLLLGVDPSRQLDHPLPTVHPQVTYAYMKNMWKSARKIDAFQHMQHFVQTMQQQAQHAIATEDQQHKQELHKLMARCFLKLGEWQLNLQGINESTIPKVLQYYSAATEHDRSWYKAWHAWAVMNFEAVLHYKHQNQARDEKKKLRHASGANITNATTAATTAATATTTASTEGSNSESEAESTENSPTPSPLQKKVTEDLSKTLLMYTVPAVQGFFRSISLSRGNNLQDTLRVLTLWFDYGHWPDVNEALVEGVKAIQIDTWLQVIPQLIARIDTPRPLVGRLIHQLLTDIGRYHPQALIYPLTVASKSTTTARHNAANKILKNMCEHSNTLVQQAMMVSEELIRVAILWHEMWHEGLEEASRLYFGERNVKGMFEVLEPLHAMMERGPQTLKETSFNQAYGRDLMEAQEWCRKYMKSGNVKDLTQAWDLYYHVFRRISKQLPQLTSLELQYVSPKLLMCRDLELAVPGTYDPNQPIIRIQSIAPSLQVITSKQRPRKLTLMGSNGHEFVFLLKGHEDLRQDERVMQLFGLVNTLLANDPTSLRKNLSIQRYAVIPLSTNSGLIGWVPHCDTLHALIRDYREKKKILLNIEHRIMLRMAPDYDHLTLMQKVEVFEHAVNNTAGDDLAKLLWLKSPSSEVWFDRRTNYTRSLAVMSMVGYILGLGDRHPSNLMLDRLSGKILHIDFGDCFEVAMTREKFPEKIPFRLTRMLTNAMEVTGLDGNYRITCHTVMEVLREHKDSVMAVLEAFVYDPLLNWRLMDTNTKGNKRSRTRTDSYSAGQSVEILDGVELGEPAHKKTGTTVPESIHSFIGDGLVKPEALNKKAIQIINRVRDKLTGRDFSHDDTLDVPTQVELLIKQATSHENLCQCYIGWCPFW
# Assay: mTOR kinase inhibition assay (radiometric or LanthaScreen TR-FRET)
# Type: biochemical
# Conditions: Table 2; read-out: mTORC IC50
row,SMILES,IC50
1,COc1cc2cc(-c3nn(C(C)C)c4ncnc(N)c34)[nH]c2cc1Cl [Compound 29],> 500 nM
2,Cc1nccn1CCn1nc(-c2cc3cc(O)ccc3[nH]2)c2c(N)ncnc21 [Compound 44],< 100 nM
3,CCOC(=O)Cn1nc(-c2cc3cc(O)ccc3[nH]2)c2c(N)ncnc21 [Compound 28],< 500 nM
4,Nc1ncnc2c1c(-c1cc3cc(O)ccc3[nH]1)nn2C1CCOCC1 [Compound 42],< 5 nM
5,Nc1ncnc2c1c(-c1cc3cc(O)ccc3[nH]1)nn2C1CCN(C(=O)C2CC2)CC1 [Compound 31],< 25 nM
6,CC(C)n1nc(-c2cc3cc(O)ccc3[nH]2)c2c(N)nccc21 [Compound 45],> 500 nM
7,CNC(=O)CCn1nc(-c2cc3cc(O)ccc3[nH]2)c2c(N)ncnc21 [Compound 43],> 500 nM
8,CC(=O)N1CCC(n2nc(-c3cc4cc(O)ccc4[nH]3)c3c(N)ncnc32)CC1 [Compound 30],< 25 nM
9,Nc1ncnc2c1c(-c1cc3cc(O)ccc3[nH]1)nn2CCN1CCOCC1 [Compound 33],< 500 nM
10,CC(C)N1CCC(n2nc(-c3cc4cc(O)ccc4[nH]3)c3c(N)ncnc32)CC1 [Compound 55],< 500 nM

# Same assay, conditions: Table 4; read-out: mTORC IC50
row,SMILES,IC50
1,C[C@H]1CN(C2CN(c3cnc4ccc(-c5ccc6oc(N)nc6c5)nc4c3)C2)CCN1C [Compound 606],> 10000 nM
2,C[C@@H]1CN(c2cnc3ccc(-c4ccc5oc(N)nc5c4)nc3c2)CCN1 [Compound 599],> 10000 nM
3,C[C@@H]1CN(C2CN(c3cnc4ccc(-c5ccc6oc(N)nc6c5)nc4c3)C2)CCN1C [Compound 608],> 10000 nM
4,C[C@@H]1CN(C2CN(c3cnc4ccc(-c5ccc6oc(N)nc6c5)nc4c3)C2)CCN1 [Compound 607],> 10000 nM

# Same assay, conditions: in vitro; read-out: mTORC IC50
row,SMILES,IC50
1,O=C(c1cnc2ccc(-c3ccnc4[nH]ncc34)cn12)N1CCOCC1 [Compound 532],> 10000 nM
2,CN1CC2CN(C(=O)c3cnc4ccc(-c5ccc6oc(N)nc6c5)cn34)CC2C1 (stereo not shown) [Compound 533],> 10000 nM
3,Cc1ncc(-c2ccc3ncc(C(=O)N4C5CCC4COC5)n3c2)c2cn[nH]c12 [Compound 538],> 10000 nM

# Same assay, conditions: read-out: mTORC IC50
row,SMILES,IC50
1,CC(C)[C@@H](N)C(=O)N1CCN(c2cnc3ccc(-c4ccc5oc(N)nc5c4)cc3n2)CC1 [Compound 270],< 10000 nM
